Values of other authors, collected in US20210095260A1, “BI- OR MULTI-DIFFERENTIATED ORGANOID” (IMBA - INSTITUT FÜR MOLEKULARE BIOTECHNOLOGIE GMBH, priority 2017, published 2021).

Tested on: hPSCs
Conditions: inhibition of SHH activity; cited from earlier work

For `CC1=C2C[C@H]3[C@@H](CC=C4C[C@@H](O)CC[C@@]43C)[C@@H]2CC[C@]12O[C@@H]1C[C@H](C)CN[C@H]1[C@H]2C` [CycA, cyclopamine A], the dorsal forebrain identity is given as “can enhance dorsal forebrain identity”.
